Assay results: patent US7435716B2, “Compounds pharmaceutical compositions and methods for treatment of bacteremia and/or septicemia” (Ramot At Tel Aviv University Ltd., priority 2001, dated 2008)
Read-outs that look alike come from different tables or passages of the source.

How the values were obtained:
[1] = tested on: erythromycin resistant Klebsiella pneumoniae; assay: Mice protection assay; assay type: in vivo; conditions: for Mice survival (Dead/Total): intraperitoneally; for protection of mice, in words: with erythromycin
Procedure: Sublethal dose of Klebsiella pneumoniae (2×10^5 cfu) were injected intreperitonially to mice. […] After additional 24 hours, the mice were treated once with half dose. Survival was followed daily for 7 days.
Polymyxin octapeptide conjugated with the tripeptide formyl Met-Leu-Phe (fMLF, SEQ ID NO:1) was assayed in combination with erythromycin for the ability to provide protection against Klebsiella pneumoniae infection in an in vivo infection model previously described (Ofek et al., 1994).

[2] = tested on: Pseudomonas aeruginosa clinical isolates; assay: Sensitizing activity for clinical isolates (MIC of antibiotic); assay type: cell-based; conditions: antibiotic alone
Procedure: (§1) Experiments for the determining the sensitizing activity of the conjugates were performed similar to those described for PMBN in previous studies (Ofek et al 1994). All conjugates were teted at 20 μg/ml to determine the MIC of the indicated antibiotic. Antibiotics were purchased from Sigma (novobiocin, erythromycin and gentamycin), Bristol (Amikin), Galaxo (Zinacef), and B.R.L (augmentin). Numbers in brackets indicate number of is strains tested.

[3] = tested on: Klebsiella pneumoniae clinical isolates; assay: as above; assay type: cell-based; conditions: antibiotic alone
Procedure: as §1

[4] = tested on: phagocytosis of E. coli by human monocytes-derived macrophages; assay: Phagocytosis activity assay; assay type: cell-based
Procedure: (§2) The conjugates and the control peptides were incubated with E. coli (10^6 CFU/mL) prior to the contact with human monocytes-derived macrophages monolayer. After 30 minutes of phagocyte-bacteria encounter, the phagocytes were washed, lysed and the released bacteria allowed to grow for 4.5 hours at 37° C. The amount of trapped bacteria were calculated as a function of absorbency at 600 nm.
as §2, with “nm. fMLF by itself (10 μM) enhanced by 2.5 fold the phagocytosis comparing to the control (FIG. 2). […] Tuftsin-PMBN enhanced the phagocytosis by 3 folds comparing to the control.” for “nm.”

Klebsiella pneumonia [5] = assay: Sensitization assay (fold decrease in MIC of novobiocin); assay type: cell-based; conditions: sensitization towards novobiocin, peptide 50 μg/ml, relative to PMBN
Procedure: (§3) Bacterial suspension (10 μL, 1×10^5 CFU) was inoculated into microtiter plate wells containing 100 μL of a serial two-fold dilution (1000-0.5 μg/mL) of novobiocin (Sigma) in ISB. To each well, 10 μL of the test peptide was added to a final concentration of 50 μg/mL. The fold decrease in MIC for novobiocin comparing wells with and without test peptides was calculated and designated as sensitizing activity. The relative sensitizing activity of the test peptide was calculated as percent of the sensitizing activity of 50 μg/mL pPMBN.

Escherichia coli = assay: as above; assay type: cell-based; conditions: sensitization towards novobiocin, peptide 50 μg/ml, relative to PMBN
Procedure: as §3

Gram-negative bacteria [6] = assay: Antimicrobial activity of the peptide per se (MIC assay); assay type: cell-based; conditions: peptide alone
Procedure: (§4) Gram-negative bacteria were grown on nutrient agar plates (Difco Laboratories, Detroit, Mich.) and kept at 4° C. An overnight culture in isotonic sensitest broth (ISB, Oxoid) was adjusted to 1×10^5 CFU/mL and inoculated into microtiter plate wells containing each 100 μL of a serial twofold dilution (1000-0.5 μg/mL) of the tested antibiotics in ISB. MIC was defined as the lowest concentration at which there was no visible bacterial growth after incubation for 20 hours at 37° C. The results are reported for 4-8 separate tests that varied by no more than one dilution.

Klebsiella pneumonia [7] = assay: Minimal inhibitory concentration (MIC) assay; assay type: cell-based; conditions: compared with PMBN
Procedure: as §4

E. coli = assay: Minimal inhibitory concentration (MIC) assay; assay type: cell-based; conditions: compared with PMBN
Procedure: as §4

E. coli LPS = assay: Displacement assay of dansyl-PMBN from LPS; assay type: binding; conditions: for ability to displace Dansyl-PMBN from LPS / affinity to LPS, in words: comparison with PMBN or polymyxin B; for IC50: inhibits 50% of initial fluorescence of 0.55 μM Dansyl-PMBN bound to E. coli-LPS, read-out: Peptides IC50
Procedure: To determine the binding of a given peptide to LPS, a displacement assay was performed in which 5 or 10 μl (1×10^−5-1×10^−3 M) of the tested peptide at desired concentrations were added at 5 minutes interval to a pre-equilibrated mixture of LPS solution (2 mL, 3 μg/mL, ˜2×10^−7 M) in HEPES buffer (5 mM, pH 7.2) and dansyl-PMBN (0.55 μM). The fluorescence intensity (excitation wavelength of 340 nm and emission wavelength of 485 nm) was recorded after each time interval. Each experiment was repeated 2-3 times. The percent inhibition of fluorescence intensity was plotted as a function of the peptide concentration from which the concentration required for maximal (Imax) and 50% (IC50) displacement of the dansyl-PMBN from LPS was derived.
Values were calculated as peptide's potency, at a concentration of 50 μg/ml, relatively to PMBN. IC50 values represent peptide concentrations that inhibits 50% of the initial fluorescence of 0.55 μM Dansyl-PMBN bound to E. coli-LPS.

[8] = cited from earlier work
[9] = cited from earlier work; remark: listed apart in the source
[10] = Lam et al., 1986; cited from earlier work
[11] = tested on: clinical isolates of gram-negative bacteria; conditions: previous studies (Ofek et al, 1994); cited from earlier work
Gram-negative bacteria [12] = assay: Sensitization assay, bacterium not specified at the place; assay type: cell-based; conditions: comparison with PMBN
Procedure: as §3

CC[C@H]1OC(=O)[C@H](C)[C@@H](O[C@H]2C[C@@](C)(OC)[C@@H](O)[C@H](C)O2)[C@H](C)[C@@H](O[C@@H]2O[C@H](C)C[C@H](N(C)C)[C@H]2O)[C@](C)(O)C[C@@H](C)C(=O)[C@H](C)[C@@H](O)[C@]1(C)O [Erythromycin]
Mice survival (Dead/Total) ([1]; erythromycin 10 mg/Kg alone): 18/18
protection of mice, in words [1]: all 18 mice who received erythromycin only died
Range of MIC [2]: 200 µg/mL
Range of MIC [3]: 100 to 200 µg/mL

CO[C@@H]1[C@@H](OC(N)=O)[C@@H](O)[C@H](Oc2ccc3c(O)c(NC(=O)c4ccc(O)c(CC=C(C)C)c4)c(=O)oc3c2C)OC1(C)C [Novobiocin]
Range of MIC [2]: 62 to 1000 µg/mL

Formyl-Met-Leu-Phe-Thr-Dab-cyclo[Dab-Dab-dPhe-Leu-Dab-Dab-Thr] [fMLF-PMBN]
enhancement of phagocytosis, in words ([4]; 1 μM): enhanced the phagocytosis of the bacteria
protection of mice, in words [1]: Almost complete protection
peptides potency (%) Klebsiella pneumonia (Klebsiella pneumonia [5]): 475%
peptides potency (%) Escherichia coli (Escherichia coli): 783%
antimicrobial activity per se (Gram-negative bacteria [6]): did not have antimicrobial activity by it self
antimicrobial activity per se (Gram-negative bacteria [6]; listed as PMBN-fMLF): no antimicrobial activity per se
effect of the added peptide on MIC of PMBN towards Klebsiella pneumonia (Klebsiella pneumonia [7]): did not significantly reduce
effect of the added peptide on MIC of PMBN towards E. coli (E. coli): did not significantly reduce
ability to displace Dansyl-PMBN from LPS / affinity to LPS, in words (E. coli LPS): even lower than PMBN
IC50 (E. coli LPS): 12 µM

Gentamycin
Range of MIC [2]: 1000 µg/mL

Polymyxin B
Mice survival (Dead/Total) ([1]; 1.5 + 1.5 + 1.5 mg/Kg, no erythromycin): 3/18
neuromuscular blockade, neurotoxic or nephrotoxic effects ([8]; rats, 3 mg/Kg body weight intravenously over a long period): all of which were observed
neuromuscular blockade, neurotoxic or nephrotoxic effects ([9]; dogs, 3 mg/Kg body weight intravenously over a long period): all of which were observed
IC50 (E. coli LPS): 0.5 µM

Thr-Dab-cyclo[Dab-Dab-dPhe-Leu-Dab-Dab-Thr] [PMBN]
protection of mice, in words [1]: partial protection
neuromuscular blockade, neurotoxic or nephrotoxic effects ([8]; rat, in vivo, iv, 3 mg/kg): did not cause neuromuscular blockade and neurotoxic or nephrotoxic effects
neuromuscular blockade, neurotoxic or nephrotoxic effects ([9]; dog, in vivo, iv, 3 mg/kg): did not cause neuromuscular blockade and neurotoxic or nephrotoxic effects
peptides potency (%) Klebsiella pneumonia (Klebsiella pneumonia [5]): 100%
peptides potency (%) Escherichia coli (Escherichia coli): 100%
dose that was not lethal (doses as high as) [10]: 200 mg/Kg body weight
clinical isolates rendered more susceptible to novobiocin [11]: 53 out of 53
IC50 (E. coli LPS): 4.5 µM

Thr-Lys-Pro-Arg-Thr-Dab-cyclo[Dab-Dab-dPhe-Leu-Dab-Dab-Thr] [Tuftsin-PMBN]
enhancement of phagocytosis comparing to the control ([4]; concentration not given): 3 folds
sensitizing activity, in words (Gram-negative bacteria [12]): increased ability to enhance the permeability of the bacterial outer membrane to novobiocin
peptides potency (%) Klebsiella pneumonia (Klebsiella pneumonia [5]): 268%
peptides potency (%) Escherichia coli (Escherichia coli): 863%
antimicrobial activity per se (Gram-negative bacteria [6]): did not have antimicrobial activity by it self
antimicrobial activity per se (Gram-negative bacteria [6]; listed as PMBN-tuftsin): no antimicrobial activity per se
effect of the added peptide on MIC of PMBN towards Klebsiella pneumonia (Klebsiella pneumonia [7]): did not significantly reduce
effect of the added peptide on MIC of PMBN towards E. coli (E. coli): did not significantly reduce
ability to displace Dansyl-PMBN from LPS / affinity to LPS, in words (E. coli LPS): much higher potency then PMBN
IC50 (E. coli LPS): 0.7 µM

formyl-Met-Leu-Phe [fMLF, reference compound]
enhancement of phagocytosis comparing to the control ([4]; 10 μM): 2.5 fold
